Laboratory results from patent US10781224B2, “Bis(oxymethyl)phosphinic acid and biogenic metal salts thereof as regulators of plant growth and development” (priority 2016, dated 2020).

System: rice (Diamant variety)
Experiment: Rice seed treatment with BHMPA salts: germinating power
Format: in vivo
Conditions: for Length, root / Length, root, + % to control / Length, sprout / Length, sprout, + % to control / Mass, dry, root / Mass, dry, root, + % to control / Mass, dry, sprout / Mass, dry, sprout, + % to control / Mass, wet, root / Mass, wet, root, + % to control / Mass, wet, sprout / Mass, wet, sprout, + % to control: rice seed treatment
Method: Experimental versions—soaking seeds in BHMPA solutions and solutions of BHMPA Ca, Mg, Na, Co, Mn, Cu, and Zn salts at 1·10^−6-1·10^−12% concentrations (doses). The studies were conducted in laboratory in Petri dishes; seed bed—two layers of filter paper. 50 seeds soaked in water (control) and in the solutions of the tested compounds (experimental) were placed into each dish. Wheat, corn, and rice seeds were exposed for one hour.
Seed germination energy and rate were calculated in percent as an arithmetic mean of the four experimental results (germination energy on the 4th day, wheat germination on the 8th day, rice and corn germination—on the 7th day). Germination was determined based on the germinating power indicators (length of the roots and sprouts and their wet and dry mass per 100 shoots).
The effect of pre-sowing seed treatment with the claimed BHMPA salts of biogenic metals was studied on winter wheat (Vershin variety), corn (Krasnodar 385 MV variety), and rice (Diamant variety).
The above data describe the seed viability only at the initial stage of germination, while the germination ability at the later stage of germination is defined by the initial germinating power. The method for the determination of the germinating power comprises measuring the height of the sprouts and primary roots, as well as the biomass and the dry mass thereof per 100 seedlings. [M. A. Kartuzova. Initial Germinating Power as Method of Biological Assessment of Seed Quality. Selection and Seed Farming, #2, 1953].

[1] = comparison with Melaphen (Table XXXIII), solution 1 · 10^−10%
[2] = experimental solution 1 · 10^−6%
[3] = experimental solution 1 · 10^−7%
[4] = experimental solution 1 · 10^−8%
[5] = experimental solution 1 · 10^−9%
[6] = experimental solution 1 · 10^−10%
[7] = experimental solution 1 · 10^−11%
[8] = experimental solution 1 · 10^−12%
[9] = rice, vs control, 1·10^−10% solution

Substance: Copper BHMPA Salt [Cu-salt]
- optimum concentration for treating rice seeds before sowing (rice): 1·10^−10%
- Length, root [1]: 6.3 cm
- Length, root, + % to control [1]: 31%
- Length, sprout [1]: 3.3 cm
- Length, sprout, + % to control [1]: 27%
- Mass, dry, root [1]: 0.26 g/100 plantlings
- Mass, dry, root, + % to control [1]: 24%
- Mass, dry, sprout [1]: 0.27 g/100 plantlings
- Mass, dry, sprout, + % to control [1]: 8%
- Mass, wet, root [1]: 1.35 g/100 plantlings
- Mass, wet, root, + % to control [1]: 38%
- Mass, wet, sprout [1]: 2.25 g/100 plantlings
- Mass, wet, sprout, + % to control [1]: 49%
- Length, root [2]: 5.4 cm
- Length, root, + % to control [2]: 6%
- Length, sprout [2]: 2.6 cm
- Length, sprout, + % to control [2]: 8%
- Mass, dry, root [2]: 0.19 g/100 plantlings
- Mass, dry, root, + % to control [2]: 12%
- Mass, dry, sprout [2]: 0.26 g/100 plantlings
- Mass, dry, sprout, + % to control [2]: 13%
- Mass, wet, root [2]: 0.93 g/100 plantlings
- Mass, wet, root, + % to control [2]: 13%
- Mass, wet, sprout [2]: 1.47 g/100 plantlings
- Mass, wet, sprout, + % to control [2]: 6.5%
- Length, root [3]: 5.5 cm
- Length, root, + % to control [3]: 8%
- Length, sprout [3]: 2.7 cm
- Length, sprout, + % to control [3]: 12.5%
- Mass, dry, root [3]: 0.21 g/100 plantlings
- Mass, dry, root, + % to control [3]: 23.5%
- Mass, dry, sprout [3]: 0.29 g/100 plantlings
- Mass, dry, sprout, + % to control [3]: 26%
- Mass, wet, root [3]: 1.03 g/100 plantlings
- Mass, wet, root, + % to control [3]: 26%
- Mass, wet, sprout [3]: 1.61 g/100 plantlings
- Mass, wet, sprout, + % to control [3]: 17%
- Length, root [4]: 5.7 cm
- Length, root, + % to control [4]: 12%
- Length, sprout [4]: 2.8 cm
- Length, sprout, + % to control [4]: 17%
- Mass, dry, root [4]: 0.23 g/100 plantlings
- Mass, dry, root, + % to control [4]: 35%
- Mass, dry, sprout [4]: 0.31 g/100 plantlings
- Mass, dry, sprout, + % to control [4]: 35%
- Mass, wet, root [4]: 1.09 g/100 plantlings
- Mass, wet, root, + % to control [4]: 33%
- Mass, wet, sprout [4]: 1.74 g/100 plantlings
- Mass, wet, sprout, + % to control [4]: 26%
- Length, root [5]: 5.9 cm
- Length, root, + % to control [5]: 16%
- Length, sprout [5]: 2.8 cm
- Length, sprout, + % to control [5]: 17%
- Mass, dry, root [5]: 0.25 g/100 plantlings
- Mass, dry, root, + % to control [5]: 47%
- Mass, dry, sprout [5]: 0.33 g/100 plantlings
- Mass, dry, sprout, + % to control [5]: 43%
- Mass, wet, root [5]: 1.16 g/100 plantlings
- Mass, wet, root, + % to control [5]: 41%
- Mass, wet, sprout [5]: 1.92 g/100 plantlings
- Mass, wet, sprout, + % to control [5]: 39%
- Length, root [6]: 6.0 cm
- Length, root, + % to control [6]: 18%
- Length, sprout [6]: 2.9 cm
- Length, sprout, + % to control [6]: 21%
- Mass, dry, root [6]: 0.27 g/100 plantlings
- Mass, dry, root, + % to control [6]: 59%
- Mass, dry, sprout [6]: 0.36 g/100 plantlings
- Mass, dry, sprout, + % to control [6]: 56.5%
- Mass, wet, root [6]: 1.22 g/100 plantlings
- Mass, wet, root, + % to control [6]: 49%
- Mass, wet, sprout [6]: 2.11 g/100 plantlings
- Mass, wet, sprout, + % to control [6]: 53%
- Length, root [7]: 5.9 cm
- Length, root, + % to control [7]: 16%
- Length, sprout [7]: 2.7 cm
- Length, sprout, + % to control [7]: 12.5%
- Mass, dry, root [7]: 0.24 g/100 plantlings
- Mass, dry, root, + % to control [7]: 41%
- Mass, dry, sprout [7]: 0.32 g/100 plantlings
- Mass, dry, sprout, + % to control [7]: 39%
- Mass, wet, root [7]: 1.12 g/100 plantlings
- Mass, wet, root, + % to control [7]: 36.5%
- Mass, wet, sprout [7]: 1.87 g/100 plantlings
- Mass, wet, sprout, + % to control [7]: 35.5%
- Length, root [8]: 5.6 cm
- Length, root, + % to control [8]: 10%
- Length, sprout [8]: 2.6 cm
- Length, sprout, + % to control [8]: 8%
- Mass, dry, root [8]: 0.20 g/100 plantlings
- Mass, dry, root, + % to control [8]: 18%
- Mass, dry, sprout [8]: 0.27 g/100 plantlings
- Mass, dry, sprout, + % to control [8]: 17%
- Mass, wet, root [8]: 1.01 g/100 plantlings
- Mass, wet, root, + % to control [8]: 23%
- Mass, wet, sprout [8]: 1.75 g/100 plantlings
- Mass, wet, sprout, + % to control [8]: 27%
- dry mass of the roots increased by [9]: 59%
- dry mass of the sprouts increased by [9]: 56.5%
- length of the root increased by [9]: 18%
- length of the sprout increased by [9]: 21%
- wet mass of the roots increased by [9]: 49%
- wet mass of the sprouts increased by [9]: 53%
